Experimental data: PubChem BioAssay (NCI)
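Dose response: 5 concentrations. Exposure: 48 h. Format: 96-well plates. Endpoint: linear interpolation; highest concentration if not reached. The concentration for full growth arrest is given as TGI.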

Assays:
Assay in all cases: NCI anticancer screen, dose series, 48 h
786-0 renal = test system: 786-0 renal
A498 renal = test system: A498 renal
A549 NSCLC = test system: A549 NSCLC
ACHN renal = test system: ACHN renal
CAKI-1 renal = test system: CAKI-1 renal
CCRF-CEM leukemia = test system: CCRF-CEM leukemia
COLO 205 colon = test system: COLO 205 colon
DU-145 prostate = test system: DU-145 prostate
EKVX NSCLC = test system: EKVX NSCLC
HCC-2998 colon = test system: HCC-2998 colon
HCT-116 colon = test system: HCT-116 colon
HCT-15 colon = test system: HCT-15 colon
HL-60(TB) leukemia = test system: HL-60(TB) leukemia
HOP-62 NSCLC = test system: HOP-62 NSCLC
HS 578T breast = test system: HS 578T breast
HT29 colon = test system: HT29 colon
IGROV1 ovarian = test system: IGROV1 ovarian
K-562 leukemia = test system: K-562 leukemia
KM12 colon = test system: KM12 colon
LOX IMVI melanoma = test system: LOX IMVI melanoma
M14 melanoma = test system: M14 melanoma
MALME-3M melanoma = test system: MALME-3M melanoma
MCF7 breast = test system: MCF7 breast
MDA-MB-231 breast = test system: MDA-MB-231 breast
MDA-MB-435 = test system: MDA-MB-435
MDA-N = test system: MDA-N
MOLT-4 leukemia = test system: MOLT-4 leukemia
NCI-H226 lung = test system: NCI-H226 lung
NCI-H23 lung = test system: NCI-H23 lung
NCI-H460 lung = test system: NCI-H460 lung
NCI-H522 lung = test system: NCI-H522 lung
NCI/ADR-RES ovarian = test system: NCI/ADR-RES ovarian
OVCAR-3 ovarian = test system: OVCAR-3 ovarian
OVCAR-4 ovarian = test system: OVCAR-4 ovarian
OVCAR-5 ovarian = test system: OVCAR-5 ovarian
OVCAR-8 ovarian = test system: OVCAR-8 ovarian
PC-3 prostate = test system: PC-3 prostate
RPMI-8226 leukemia = test system: RPMI-8226 leukemia
RXF 393 renal = test system: RXF 393 renal
SF-268 CNS = test system: SF-268 CNS
SF-295 CNS = test system: SF-295 CNS
SF-539 CNS = test system: SF-539 CNS
SK-MEL-2 melanoma = test system: SK-MEL-2 melanoma
SK-MEL-28 melanoma = test system: SK-MEL-28 melanoma
SK-MEL-5 melanoma = test system: SK-MEL-5 melanoma
SK-OV-3 ovarian = test system: SK-OV-3 ovarian
SN12C renal = test system: SN12C renal
SNB-19 CNS = test system: SNB-19 CNS
SNB-75 CNS = test system: SNB-75 CNS
SR leukemia = test system: SR leukemia
SW-620 colon = test system: SW-620 colon
T-47D breast = test system: T-47D breast
TK-10 renal = test system: TK-10 renal
UACC-257 melanoma = test system: UACC-257 melanoma
UACC-62 melanoma = test system: UACC-62 melanoma
UO-31 renal = test system: UO-31 renal
HOP-92 NSCLC = test system: HOP-92 NSCLC
U251 CNS = test system: U251 CNS

`Cn1c(=O)oc2cc(Br)ccc21` was tested, and the TGI (786-0 renal) was greater than 100 µM, the TGI (A498 renal) was greater than 100 µM and the TGI (A549 NSCLC) was greater than 100 µM. It also gave a TGI (ACHN renal) greater than 100 µM, a TGI (CAKI-1 renal) greater than 100 µM and a TGI (CCRF-CEM leukemia) greater than 100 µM. For the same compound, the TGI (COLO 205 colon) was greater than 100 µM, the TGI (DU-145 prostate) was greater than 100 µM and the TGI (EKVX NSCLC) was greater than 100 µM. The TGI (HCC-2998 colon) was greater than 100 µM, the TGI (HCT-116 colon) was greater than 100 µM and the TGI (HCT-15 colon) was greater than 100 µM. The TGI (HL-60(TB) leukemia) was greater than 100 µM, the TGI (HOP-62 NSCLC) was greater than 100 µM and the TGI (HS 578T breast) was greater than 100 µM. For the same compound, the TGI (HT29 colon) was greater than 100 µM, the TGI (IGROV1 ovarian) was greater than 100 µM and the TGI (K-562 leukemia) was greater than 100 µM. It also gave a TGI (KM12 colon) greater than 100 µM, a TGI (LOX IMVI melanoma) greater than 100 µM and a TGI (M14 melanoma) greater than 100 µM. For the same compound, the TGI (MALME-3M melanoma) was greater than 100 µM, the TGI (MCF7 breast) was greater than 100 µM and the TGI (MDA-MB-231 breast) was greater than 100 µM. The TGI (MDA-MB-435) was greater than 100 µM, the TGI (MDA-N) was greater than 100 µM and the TGI (MOLT-4 leukemia) was greater than 100 µM. For the same compound, the TGI (NCI-H226 lung) was greater than 100 µM, the TGI (NCI-H23 lung) was greater than 100 µM and the TGI (NCI-H460 lung) was greater than 100 µM. The TGI (NCI-H522 lung) was greater than 100 µM, the TGI (NCI/ADR-RES ovarian) was greater than 100 µM and the TGI (OVCAR-3 ovarian) was greater than 100 µM. For the same compound, the TGI (OVCAR-4 ovarian) was greater than 100 µM, the TGI (OVCAR-5 ovarian) was greater than 100 µM and the TGI (OVCAR-8 ovarian) was greater than 100 µM. The TGI (PC-3 prostate) was greater than 100 µM, the TGI (RPMI-8226 leukemia) was greater than 100 µM and the TGI (RXF 393 renal) was greater than 100 µM. The TGI (SF-268 CNS) was greater than 100 µM, the TGI (SF-295 CNS) was greater than 100 µM and the TGI (SF-539 CNS) was greater than 100 µM. For the same compound, the TGI (SK-MEL-2 melanoma) was greater than 100 µM, the TGI (SK-MEL-28 melanoma) was greater than 100 µM and the TGI (SK-MEL-5 melanoma) was greater than 100 µM. It also gave a TGI (SK-OV-3 ovarian) greater than 100 µM, a TGI (SN12C renal) greater than 100 µM and a TGI (SNB-19 CNS) greater than 100 µM. For the same compound, the TGI (SNB-75 CNS) was greater than 100 µM, the TGI (SR leukemia) was greater than 100 µM and the TGI (SW-620 colon) was greater than 100 µM. The TGI (T-47D breast) was greater than 100 µM, the TGI (TK-10 renal) was greater than 100 µM and the TGI (UACC-257 melanoma) was greater than 100 µM. It also gave a TGI (UACC-62 melanoma) greater than 100 µM and a TGI (UO-31 renal) greater than 100 µM.
With `C[C@]12CC[C@@H]3c4ccc(OCCN5CCCC5)cc4CC[C@H]3[C@@H]1CCC2=O` the TGI (A498 renal) was greater than 100 µM, the TGI (A549 NSCLC) was greater than 100 µM and the TGI (ACHN renal) was greater than 100 µM. It also gave a TGI (CAKI-1 renal) of 81.5 µM, a TGI (CCRF-CEM leukemia) greater than 100 µM and a TGI (COLO 205 colon) of 35.6 µM. It also gave a TGI (DU-145 prostate) greater than 100 µM, a TGI (EKVX NSCLC) of 67.6 µM and a TGI (HCC-2998 colon) of 25.1 µM. The TGI (HCT-15 colon) was 29 µM, the TGI (HL-60(TB) leukemia) was greater than 100 µM and the TGI (HOP-62 NSCLC) was 44.5 µM. For the same compound, the TGI (HOP-92 NSCLC) was greater than 100 µM, the TGI (HT29 colon) was greater than 100 µM and the TGI (IGROV1 ovarian) was 40.7 µM. For the same compound, the TGI (K-562 leukemia) was greater than 100 µM, the TGI (LOX IMVI melanoma) was 29.7 µM and the TGI (M14 melanoma) was 29.4 µM. For the same compound, the TGI (MCF7 breast) was 48.2 µM, the TGI (MDA-MB-231 breast) was 68.7 µM and the TGI (MDA-MB-435) was greater than 100 µM. It also gave a TGI (MDA-N) of 64.3 µM, a TGI (MOLT-4 leukemia) of 70.2 µM and a TGI (NCI-H226 lung) of 54 µM. For the same compound, the TGI (NCI-H23 lung) was greater than 100 µM, the TGI (NCI-H460 lung) was 53.9 µM and the TGI (NCI/ADR-RES ovarian) was greater than 100 µM. The TGI (OVCAR-3 ovarian) was 68.8 µM, the TGI (OVCAR-4 ovarian) was greater than 100 µM and the TGI (OVCAR-5 ovarian) was 97.4 µM. The TGI (OVCAR-8 ovarian) was greater than 100 µM, the TGI (PC-3 prostate) was greater than 100 µM and the TGI (RPMI-8226 leukemia) was greater than 100 µM. The TGI (RXF 393 renal) was greater than 100 µM, the TGI (SF-295 CNS) was 43.2 µM and the TGI (SK-MEL-2 melanoma) was 35.1 µM. It also gave a TGI (SK-MEL-28 melanoma) greater than 100 µM, a TGI (SK-MEL-5 melanoma) of 30 µM and a TGI (SK-OV-3 ovarian) greater than 100 µM. The TGI (SNB-19 CNS) was greater than 100 µM, the TGI (SR leukemia) was greater than 100 µM and the TGI (SW-620 colon) was greater than 100 µM. For the same compound, the TGI (T-47D breast) was greater than 100 µM, the TGI (TK-10 renal) was greater than 100 µM and the TGI (U251 CNS) was greater than 100 µM. It also gave a TGI (UACC-257 melanoma) greater than 100 µM, a TGI (UACC-62 melanoma) of 69.8 µM and a TGI (UO-31 renal) of 61.9 µM.
